Reference: ChEMBL document CHEMBL1201862, “PubChem BioAssay data set” (2004)
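The compound was tested at five concentrations on cells cultured in 96-well plates, with a 48-hour exposure period. GI50 = concentration required for 50% inhibition of growth.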 Calls of active or inactive are those of the source. Rule as the data show it: active = GI50 up to about 1.1 µM and inactive = higher.

Columns and labels:
Assay in all cases: NCI-60 cell line screen, 48 h
BT-549 = system: BT-549
Hs-578T = system: Hs-578T
T47D = system: T47D

## Cc1cc(O)c(C(C)C)cc1NC(=O)Nc1cccc2ccccc12
BT-549
  GI50: 17.2 µM (inactive)
Hs-578T
  GI50: 13.4 µM (inactive)
T47D
  GI50: 13.2 µM (inactive)

## NCC1CCCCC1.O=C(O)NCC1CCCCC1
BT-549
  GI50: 26.5 µM (inactive)

## Nc1ccc2[nH]cc(CCC(=O)O)c2c1
BT-549
  GI50: > 100 µM (inactive)
Hs-578T
  GI50: > 100 µM (inactive)
T47D
  GI50: > 100 µM (inactive)

## Cc1cc(Cl)ccc1OCC(=O)Nc1nc(N)nc(N)n1
BT-549
  GI50: > 100 µM (inactive)
Hs-578T
  GI50: > 100 µM (inactive)
T47D
  GI50: > 100 µM (inactive)

## O=C(Nc1ccc2nc(-c3ccccc3)cn2c1)Oc1ccccc1
BT-549
  GI50: > 100 µM (inactive)
Hs-578T
  GI50: > 100 µM (inactive)
T47D
  GI50: 19.1 µM (inactive)

## C=C1CC2(CC(c3ccccc3Cl)OC(c3ccccc3Cl)C2)OC1=O (stereo unspecified)
BT-549
  GI50: 2.02 µM (inactive)
Hs-578T
  GI50: 1.88 µM (inactive)
T47D
  GI50: 1.68 µM (inactive)

## COc1cccc2c1C(=O)c1ccc3cc(CO)cc(O)c3c1C2=O
BT-549
  GI50: 1.58 µM (inactive)
Hs-578T
  GI50: 3.7 µM (inactive)
T47D
  GI50: 1.72 µM (inactive)

## Cc1cc2cc3ccccc3cc2c(=O)[nH]1
BT-549
  GI50: > 10 µM (inactive)
Hs-578T
  GI50: > 10 µM (inactive)

## COc1cc(C2SCC(=O)N2c2ccc(-n3c(-c4ccccc4)nc4ccccc4c3=O)cc2)ccc1O (stereo unspecified)
BT-549
  GI50: > 100 µM (inactive)
Hs-578T
  GI50: 22.3 µM (inactive)
T47D
  GI50: 30 µM (inactive)

## Cc1n2nc(N)sc2n[n+]1CC(=O)c1ccccc1
BT-549
  GI50: > 100 µM (inactive)
Hs-578T
  GI50: > 100 µM (inactive)
T47D
  GI50: > 100 µM (inactive)

## CC1OC(OC2C(OC(=O)[C@]34CCC(C)(C)C[C@H]3C3=CC[C@@H]5[C@@]6(C)CC[C@H](OC7OC(C(=O)O)C(O)C(O)C7O)C(C)(C)[C@@H]6CC[C@@]5(C)[C@]3(C)C[C@H]4O)OCC(O)C2O)C(O)C(OC2OCC(O)(CO)C2O)C1OC1OCC(O)C(O)C1O (stereo partly specified)
BT-549
  GI50: 5.42 µM (inactive)
Hs-578T
  GI50: 20.3 µM (inactive)
T47D
  GI50: 8.47 µM (inactive)

## COc1cc2c(cc1OC)C(=O)N(c1ccc(OCCN3CCCC3)cc1)C2=O
BT-549
  GI50: > 100 µM (inactive)
Hs-578T
  GI50: > 100 µM (inactive)
T47D
  GI50: > 100 µM (inactive)

## NCCSC1(O)C(=O)c2ccccc2-c2ccccc21 (stereo unspecified)
Hs-578T
  GI50: 1.41 µM (inactive)
T47D
  GI50: 2.1 µM (inactive)

## COc1cc2c(/C=C3/C(=O)Nc4ccc(Cl)cc43)c(Cl)n(Cc3ccccc3)c2cc1C
BT-549
  GI50: 7.85 µM (inactive)
Hs-578T
  GI50: 4.56 µM (inactive)
T47D
  GI50: 3.17 µM (inactive)

## Nc1nc(N)c2c(-c3ccccc3)ccnc2n1
BT-549
  GI50: > 100 µM (inactive)

## COC(=O)c1ccc(/C=C2\Oc3ccccc3C2=O)cc1
BT-549
  GI50: > 100 µM (inactive)
Hs-578T
  GI50: > 100 µM (inactive)
T47D
  GI50: > 100 µM (inactive)

## NC1CC(=O)c2cc(Cl)sc21 (stereo unspecified)
BT-549
  GI50: > 100 µM (inactive)
Hs-578T
  GI50: > 100 µM (inactive)
T47D
  GI50: > 100 µM (inactive)

## NNC(=S)N1CCN(C(=S)NN)CC1
BT-549
  GI50: > 100 µM (inactive)
Hs-578T
  GI50: > 100 µM (inactive)
T47D
  GI50: > 100 µM (inactive)

## O=P(O)(O)CN1CCNCCN(CP(=O)(O)O)CC1
BT-549
  GI50: > 100 µM (inactive)
Hs-578T
  GI50: > 100 µM (inactive)
T47D
  GI50: > 68.4 µM (inactive)

## COc1ccc(C(C)NNC(=O)c2ccncc2)cc1OC (stereo unspecified)
BT-549
  GI50: > 100 µM (inactive)
Hs-578T
  GI50: > 100 µM (inactive)
T47D
  GI50: > 100 µM (inactive)

## CC(C)NC(=O)OCc1c(COC(=O)NC(C)C)n(C)c2c1ccc1cc(Cl)c(Cl)cc12
BT-549
  GI50: 15.2 µM (inactive)
Hs-578T
  GI50: 23.8 µM (inactive)
T47D
  GI50: 5.82 µM (inactive)

## Nc1ccccc1N/C(=C\C(=O)C(Cl)(Cl)Cl)c1ccccc1
BT-549
  GI50: 25.7 µM (inactive)
Hs-578T
  GI50: 29.6 µM (inactive)
T47D
  GI50: 20.7 µM (inactive)

## c1ccc2c(c1)nc1n2C2CCC(C2)N1 (stereo unspecified)
BT-549
  GI50: > 10 µM (inactive)
Hs-578T
  GI50: > 10 µM (inactive)
T47D
  GI50: > 10 µM (inactive)

## CCCN1CC=C(c2cc(C(=O)OCC)[nH]c2-c2cc(C)no2)C1=O
BT-549
  GI50: > 100 µM (inactive)
Hs-578T
  GI50: > 100 µM (inactive)
T47D
  GI50: > 100 µM (inactive)

## CCC(=N\NC(N)=S)/C(C)=N/O
Hs-578T
  GI50: > 100 µM (inactive)
T47D
  GI50: > 100 µM (inactive)

## c1ccc2c(c1)CCN1CCc3ccccc3C1C2 (stereo unspecified)
BT-549
  GI50: 80.7 µM (inactive)
Hs-578T
  GI50: 68.5 µM (inactive)
T47D
  GI50: > 100 µM (inactive)

## CCOC(=O)C1CCC/C1=N\NC(=N)N.Cc1cc(O)c(C(C)C)cc1S(=O)(=O)O (stereo unspecified)
BT-549
  GI50: > 100 µM (inactive)
Hs-578T
  GI50: > 100 µM (inactive)
T47D
  GI50: > 100 µM (inactive)

## CCCCCCCCCCCCCCCCCC(=O)Nc1ccn(C2CCC(COP(=O)(O)O)O2)c(=O)n1 (stereo unspecified)
BT-549
  GI50: > 100 µM (inactive)
Hs-578T
  GI50: > 100 µM (inactive)
T47D
  GI50: > 100 µM (inactive)

## N=C1C=C(N)C(=O)c2[nH]c(=O)ccc21
Hs-578T
  GI50: 4.42 µM (inactive)
T47D
  GI50: 1.76 µM (inactive)

## O=C(NO)NCCCl
BT-549
  GI50: > 100 µM (inactive)
Hs-578T
  GI50: > 100 µM (inactive)
T47D
  GI50: > 100 µM (inactive)

## CCOC(=O)C(C(=O)OCC)C1C=CCC2c3ccccc3COCC21 (stereo unspecified)
BT-549
  GI50: 49 µM (inactive)
Hs-578T
  GI50: 73.8 µM (inactive)
T47D
  GI50: 30.2 µM (inactive)

## Cc1ccc(S(=O)(=O)[C@@H](Cl)[C@H]2N=C(Cl)NN=C2c2ccccc2)cc1
BT-549
  GI50: 23.9 µM (inactive)
T47D
  GI50: 28.8 µM (inactive)

## c1cc(-c2cnc(-c3ccc4c(c3)CCCO4)o2)ccn1
BT-549
  GI50: 15.2 µM (inactive)
Hs-578T
  GI50: 17.1 µM (inactive)
T47D
  GI50: 16.6 µM (inactive)

## C=CCn1c(-c2ccc(-c3cs/c(=N\N=O)n3CC=C)cc2)cs/c1=N\N=O
BT-549
  GI50: > 100 µM (inactive)
Hs-578T
  GI50: 45.9 µM (inactive)
T47D
  GI50: > 100 µM (inactive)

## CC1=CC2=C(C#N)C(=O)OC2(C)C(c2ccccc2)C1 (stereo unspecified)
BT-549
  GI50: > 100 µM (inactive)
Hs-578T
  GI50: > 100 µM (inactive)

## N=c1oc2ccc3ccccc3c2cc1-c1nc(O)c2ccccc2n1
BT-549
  GI50: 15.1 µM (inactive)
Hs-578T
  GI50: 20.5 µM (inactive)
T47D
  GI50: 30.7 µM (inactive)

## COc1c2c(cc3c1C(=O)c1c(O)cccc1C3=O)CC(O)CC2 (stereo unspecified)
BT-549
  GI50: 19.5 µM (inactive)
Hs-578T
  GI50: 26.7 µM (inactive)
T47D
  GI50: 7.18 µM (inactive)

## N#Cc1cccc(Nc2ccccc2SSc2ccccc2Nc2cccc(C#N)c2)c1
BT-549
  GI50: > 10 µM (inactive)
Hs-578T
  GI50: 6.97 µM (inactive)
T47D
  GI50: 12.3 µM (inactive)

## COC(=O)C1=C(C(=O)OC)N(c2ccc(OC)cc2[N+](=O)[O-])C(c2ccc(C)cc2)=CC1c1ccc(OC)cc1OC (stereo unspecified)
BT-549
  GI50: 11.3 µM (inactive)
Hs-578T
  GI50: 31.7 µM (inactive)
T47D
  GI50: 11.1 µM (inactive)

## O=C(O)CC(C(=O)O)c1ccccc1[N+](=O)[O-] (stereo unspecified)
BT-549
  GI50: > 100 µM (inactive)
Hs-578T
  GI50: 25.6 µM (inactive)
T47D
  GI50: > 100 µM (inactive)

## CN(CCCCN1CCCC1)CCCCN(C)C(=O)Cc1ccc(Cl)c(Cl)c1
BT-549
  GI50: 18.5 µM (inactive)
Hs-578T
  GI50: 19.5 µM (inactive)
T47D
  GI50: 20.2 µM (inactive)

## c1ccc2nc(CCC3CCCCN3)ccc2c1 (stereo unspecified)
BT-549
  GI50: 61.7 µM (inactive)
Hs-578T
  GI50: > 100 µM (inactive)
T47D
  GI50: 54.5 µM (inactive)

## CC(=O)Nc1ccc2c3c(cc(O)c2c1)N(C(=O)CCCCCCC(=O)N1CC(CCl)c2c1cc(O)c1cc(NC(C)=O)ccc21)CC3CCl (stereo unspecified)
BT-549
  GI50: < 0.01 µM (active)
Hs-578T
  GI50: 0.0306 µM (active)
T47D
  GI50: < 0.01 µM (active)

## CCn1c2ccccc2c2cc(Nc3cc(C)[nH]c(=O)n3)ccc21
T47D
  GI50: > 100 µM (inactive)

## O=[N+]([O-])c1ccc2c(c1)Nc1c3ccccc3nc3cccc-2c13
BT-549
  GI50: 16.3 µM (inactive)
Hs-578T
  GI50: 6.53 µM (inactive)
T47D
  GI50: 3.95 µM (inactive)

## C[C@@H]1CC[C@]2(C(=O)O)CC[C@]3(C)C(=CC[C@@H]4[C@@]5(C)CC[C@H](O)C(C)(C)[C@@H]5CC[C@]43C)[C@@H]2[C@]1(C)O [POMOLIC ACID]
BT-549
  GI50: 14.4 µM (inactive)
Hs-578T
  GI50: 3.52 µM (inactive)
T47D
  GI50: 16.4 µM (inactive)
